Earlier results on one compound are cited in patent US11077045B2, “Blood microperfusion to skin by Shilajit” (Natreon, Inc., priority 2018, dated 2021).

SMILES strings stand for the structures.

The conditions of series [1]: transdermal preparation, subjects with diabetes.
For series [2] the following is noted: low-dose administration, rats.

As to `N=C(N)NCCC[C@H](N)C(=O)O` [L-arginine], the “blood flow in feet” value in series [1] is “improved”. For the same compound, the “microperfusion of rat skin” value in series [2] is reported as “increase microperfusion”.
